{"source": "paper PMC6934184", "about": "“Selective DNA-PKcs inhibition extends the therapeutic index of localized radiotherapy and chemotherapy” (The Journal of Clinical Investigation, 2019)", "target": "T1, FGFR4 (Homo sapiens, UniProt P22455)", "T1 construct": "purchased Thermo Fisher Scientific (Life Technologies) SelectScreen", "T1 sequence (P22455 22-802)": "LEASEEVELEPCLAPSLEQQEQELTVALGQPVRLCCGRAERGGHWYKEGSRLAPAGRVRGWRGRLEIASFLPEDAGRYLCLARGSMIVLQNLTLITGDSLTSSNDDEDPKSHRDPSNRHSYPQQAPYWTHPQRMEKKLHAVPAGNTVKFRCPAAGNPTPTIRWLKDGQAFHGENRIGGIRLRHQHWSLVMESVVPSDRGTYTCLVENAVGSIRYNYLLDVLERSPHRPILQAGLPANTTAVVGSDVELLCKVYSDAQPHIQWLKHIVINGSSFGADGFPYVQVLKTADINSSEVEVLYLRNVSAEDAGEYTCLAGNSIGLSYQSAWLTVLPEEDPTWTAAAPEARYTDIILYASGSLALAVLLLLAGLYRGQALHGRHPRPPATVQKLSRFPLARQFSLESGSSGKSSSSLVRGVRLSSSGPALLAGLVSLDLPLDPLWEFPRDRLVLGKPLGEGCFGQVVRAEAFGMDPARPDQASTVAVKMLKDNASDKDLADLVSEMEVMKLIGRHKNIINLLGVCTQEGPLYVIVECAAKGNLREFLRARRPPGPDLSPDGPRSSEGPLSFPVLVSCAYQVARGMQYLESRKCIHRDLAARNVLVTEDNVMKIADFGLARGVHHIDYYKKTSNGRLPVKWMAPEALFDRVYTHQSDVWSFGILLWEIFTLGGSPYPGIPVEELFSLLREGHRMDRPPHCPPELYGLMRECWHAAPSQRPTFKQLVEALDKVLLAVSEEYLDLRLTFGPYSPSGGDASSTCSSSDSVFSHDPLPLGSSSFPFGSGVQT", "test": "SelectScreen Z'LYTE", "type": "biochemical", "method_in_brief": "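Percent values come from Thermo SelectScreen profiling of NU5455, combining activity and binding assays. CSF1R was run in Z'LYTE format at Km app ATP, and CAMK1 in Adapta format with ATP listed at 10.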", "data": [{"molecule": "CN(C(=O)CN1CCOCC1)c1ccc2sc3c(-c4cccc5c(=O)cc(N6CC7CCC(C6)O7)oc45)cccc3c2c1", "note": "[NU5455]", "values": [{"measurement": "inhibition at 1 µM", "result": -3.1, "unit": "%"}]}]}
